In paper PMC9103699, “Myoglobin Interaction with Lactate Rapidly Releases Oxygen: Studies on Binding Thermodynamics, Spectroscopy, and Oxygen Kinetics” (International Journal of Molecular Sciences, 2022):
“Also recorded” adds a separate entry of the source.

Legend:
equine oxy-Mb [1] = target: T1, equine oxy-Mb (Equus caballus, UniProt P68082); assay: ITC binding of lactate to oxy-Mb; details: for Kd: n = 5; for c value: c = nKa[M]t; for ΔS°: from ΔG = ΔH − TΔS
T1 construct: Horse heart muscle myoglobin (Mb), chicken egg white lysozyme, sodium lactate (LAC), and sodium dithionite were purchased from Sigma Aldrich; purchased Sigma Aldrich, St. Louis, MO, USA; host or cells: horse heart muscle
Protocol: (§1) Preparations enriched in oxygenated and deoxygenated forms of Mb were prepared as described by our earlier publication related to Mb interaction with fatty acids and acylcarnitines. Briefly, 500 µM of Mb was dissolved in 50 mM sodium phosphate buffer of desired test pH. To promote conversion of ferric (Fe^3+) to ferrous (Fe^2+) iron, 3 mM of sodium dithionite was added to the protein solution with gentle mixing. Thereafter, the solution was subjected to a desalting column to remove the reducing agent and to remove the interference, particularly in O2 release kinetics and UV-Vis spectroscopy absorbance peaks. […] Thereafter, purging the protein solution enriched in oxy- and deoxy-Mb with either O2 or N2 gas, respectively, was performed continuously for 10 min. Formation of oxy- and deoxy-Mb were confirmed based on their characteristic peaks using UV-visible spectroscopy. All the experiments were performed in three different pH conditions (7.0, 6.4, and 6.0), mimicking intracellular physiological and acidic pH states that would be typically observed in skeletal muscle cells in “rested” and “active” (hyperlactatemia) conditions.
(§2) Protein-ligand binding experiments were performed using isothermal titration calorimetry (ITC) (Microcal PEAQ-ITC, Malvern, Chester County, PA, USA). Before starting the experiment, both the ligand solution and the protein solution were purged with either O2 or N2 for 10 min. Both the protein and LAC solutions were thermally equilibrated to 25 °C prior to the start of the titration. LAC was loaded in the […] at an initial concentration of 50 µM and titrated against 500 µM of either oxy- or deoxy-Mb solution, maintaining a 1:10 ratio between ligand and protein. To obtain the working c-value between 10 ≤ c ≤ 500 [51], different protein to ligand molar ratios (1:2, 1:5, 1:10, and 1:20) were tested, and based on the c-value, the molar ratio of 1:10 was selected for all ITC binding studies. A total of 19 injections (2 µL each) from the syringe were used to generate the ITC curves within each experiment. During the experimental run, the samples were mixed thoroughly at a constant stirring rate of 750 rpm. Between each injection, a 150 s gap was maintained to achieve a stable baseline. Data obtained from the ITC experiments were best fit to a one set of binding sites model provided by Microcal PEAQ-ITC software (version 1.40). Heats of dilution and heats caused by potential products formed during the course of the ITC experiments were corrected by performing appropriate blank titrations, consisting of (a) either oxy- or deoxy-Mb in the test buffer solution, (b) test buffer in the LAC, and (c) buffer-buffer solution. Lysozyme was used as a negative control protein in the protein-ligand binding experiments. All the binding experiments were performed 5 times (n = 5) and data obtained from statistical analysis are presented here.
(§3) The change in entropy (ΔS) was calculated using the equation: ΔG = ΔH − TΔS(1) where ΔG represents the change in Gibbs free energy, ΔH is the change in enthalpy, and T is the absolute temperature.
(§4) c values were calculated using the equation:c = nKa[M]t(2) where n is the number of binding sites per receptor (macromolecule), [M]t is macromolecule concentration, and Ka is the association constant.

equine deoxy-Mb = target: T2, equine deoxy-Mb (Equus caballus, UniProt P68082); assay: ITC binding of lactate to deoxy-Mb; details: for Kd: n = 5; for c value: c = nKa[M]t; for ΔS°: from ΔG = ΔH − TΔS
T2 construct: Horse heart muscle myoglobin (Mb), chicken egg white lysozyme, sodium lactate (LAC), and sodium dithionite were purchased from Sigma Aldrich; purchased Sigma Aldrich, St. Louis, MO, USA; host or cells: horse heart muscle
Protocol: as §1, §2, §3, §4

[2] = target: T3, chicken egg white lysozyme (Gallus gallus, UniProt P00698); assay: ITC binding of LAC to negative control protein lysozyme; details: all tested pH conditions (pH 7.0, 6.4, 6.0)
T3 construct: Horse heart muscle myoglobin (Mb), chicken egg white lysozyme, sodium lactate (LAC), and sodium dithionite were purchased from Sigma Aldrich; purchased Sigma Aldrich, St. Louis, MO, USA; host or cells: chicken egg white
Protocol: Horse heart muscle myoglobin (Mb), chicken egg white lysozyme, sodium lactate (LAC), and sodium dithionite were purchased from Sigma Aldrich, St. Louis, MO, USA. All other chemicals used in the experiments are of analytical grade and were also procured from Sigma Aldrich, St. Louis, MO, USA.
Protein-ligand binding experiments were performed using isothermal titration calorimetry (ITC) (Microcal PEAQ-ITC, Malvern, Chester County, PA, USA). Before starting the experiment, both the ligand solution and the protein solution were purged with either O2 or N2 for 10 min. Both the protein and LAC solutions were thermally equilibrated to 25 °C prior to the start of the titration. LAC was loaded in the […] at an initial concentration of 50 µM and titrated against 500 µM of either oxy- or deoxy-Mb solution, maintaining a 1:10 ratio between ligand and protein. To obtain the working c-value between 10 ≤ c ≤ 500 [51], different protein to ligand molar ratios (1:2, 1:5, 1:10, and 1:20) were tested, and based on the c-value, the molar ratio of 1:10 was selected for all ITC binding studies. A total of 19 injections (2 µL each) from the syringe were used to generate the ITC curves within each experiment. During the experimental run, the samples were mixed thoroughly at a constant stirring rate of 750 rpm. Between each injection, a 150 s gap was maintained to achieve a stable baseline. […]

equine oxy-Mb [3] = target: T1, equine oxy-Mb; assay: O2 release kinetics from oxy-Mb (Oxytherm+ respirometer); assay type: biochemical
Protocol: Figure 4 Effect of lactate binding to oxy-Mb and O2 release kinetics. Oxygen kinetics is studied using Oxytherm+ respirometer. All experiments were performed with 50 mM sodium phosphate buffer (pH 7.0, pH 6.4, and pH 6.0) containing 150 µM equine oxy-Mb and varying concentrations of lactate (0.625 mM to 2.5 mM) and oxy-Mb alone as a control. (a) A representative graph showing addition of lactate eliciting a rapid release of O2 from oxy-Mb at pH 6.4. Arrows in the figure indicate the point of addition of oxy-Mb and LAC into buffer during the run. (b) Rate of release of O2 from Mb against lactate concentrations with buffers (pH 7.0, pH 6.4, and pH 6.0). […] All O2 kinetic experiments were repeated 3 times (n = 3). Statistical analysis was performed using one-way ANOVA and the Tukey–Kramer post hoc test. […] Among all the test groups, only statistically […] groups are shown with horizontal lines and two asterisks.
The O2 concentrations (release and binding) during the ligand interactions with Mb in the solution were measured using Oxytherm+ liquid-phase oxygen electrode system (Hansatech Instruments, Norfolk, UK). The Oxytherm+ respirometer is an advanced instrument routinely used for respiration studies.
The measurement of dissolved O2 is calculated at the given temperature and atmospheric pressure according to the following equation [64]: Cs = 14.16 − (0.394 × T) + (0.007714 × T^2) − (0.0000646 × […])(3) where Cs is the saturated O2 concentration in ppm and T is the temperature in °C.
1 ppm is equivalent to 1 µg/mL or (1 µg/32 g/mol) = 0.03125 µmol/mL or 31.25 nmol/mL.
Similarly, deoxy-Mb protein alone (i.e., without LAC) was also tested. All the experiments were carried out at a constant temperature of 25 °C using a Peltier thermostat. The solutions were mixed at 50 rpm using a small magnetic stirring bar placed inside the sample container. Samples were injected into the buffer solution (50 mM sodium phosphate) at varying pH levels (pH 6.0–7.0) using a Hamilton glass syringe (1cc) after achieving equilibrium. Ligand was added to the Mb protein. Appropriate buffer controls voiding either Mb or LAC were used to nullify any artefacts. O2 kinetic experiments were also performed. All the kinetic experiments were performed 3 times (n = 3) and data obtained from statistical analysis are presented here.

oxy-Mb [4] = target: T4, oxy-Mb (Equus caballus, UniProt P68082); assay: Time-resolved UV-Vis spectroscopy of LAC-incubated oxy-Mb; design: species or system horse; details: all the test pH conditions
T4 construct: Horse heart muscle myoglobin (Mb), chicken egg white lysozyme, sodium lactate (LAC), and sodium dithionite were purchased from Sigma Aldrich; purchased Sigma Aldrich, St. Louis, MO, USA; host or cells: horse heart muscle
Protocol: (§5) The change in the spectral characteristics of Mb alone and LAC-bound Mb were recorded using UV-Vis spectroscopy (Polarstar Omega, BMG Labtech, ortenberg, Germany). All the sample preparations and the concentrations used were similar to the ITC experiments. After degassing Mb and LAC samples either with O2 or N2 gas in sealed vials, appropriate volumes of the samples were collected using a Hamilton glass syringe (1cc), mixed in a glass cuvette, and sealed immediately; time-resolved spectra were recorded immediately at 25 °C for a period of 75 min. All spectral data were collected at 5 min time intervals. All the spectral experiments were performed 3 times (n = 3).

deoxy-Mb [5] = target: T5, deoxy-Mb (Equus caballus, UniProt P68082); assay: Time-resolved UV-Vis spectroscopy of LAC-incubated deoxy-Mb; design: species or system horse; details: data not shown
T5 construct: Horse heart muscle myoglobin (Mb), chicken egg white lysozyme, sodium lactate (LAC), and sodium dithionite were purchased from Sigma Aldrich; purchased Sigma Aldrich, St. Louis, MO, USA; host or cells: horse heart muscle
Protocol: as §5

oxy-Mb [6] = target: oxy-Mb; design: method as in PMID 8663546; details: pH 6.5, spectrophotometric, tonometry; cited from earlier work
deoxy-Mb [7] = target: deoxy-Mb; design: method as in PMID 8663546; details: pH 6.5, spectrophotometric, tonometry; cited from earlier work
[8] = pH 6.4, 25 °C, listed as lactate

T1 sequence (P68082 whole entry): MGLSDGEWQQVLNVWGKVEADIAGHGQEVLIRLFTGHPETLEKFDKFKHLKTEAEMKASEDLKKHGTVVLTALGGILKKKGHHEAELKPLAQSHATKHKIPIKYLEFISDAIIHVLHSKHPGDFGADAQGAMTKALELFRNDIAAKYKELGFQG
T2 sequence (P68082 whole entry): as above
T3 sequence (P00698 19-147): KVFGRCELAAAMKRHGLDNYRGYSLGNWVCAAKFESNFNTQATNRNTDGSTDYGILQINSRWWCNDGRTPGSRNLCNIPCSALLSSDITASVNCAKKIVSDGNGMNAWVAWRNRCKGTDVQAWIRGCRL
T4 sequence (P68082 whole entry): as the sequence (P68082 whole entry) above
T5 sequence (P68082 whole entry): as above

CC(O)C(=O)[O-].[Na+] (stereo not drawn) [LAC, sodium lactate]
No. of binding sites (equine oxy-Mb [1]; pH 6.0): 1.0 ± 0.06 ^a2 | ΔH° (equine oxy-Mb [1]; pH 6.0): 34 ± 3.5 ^c2 kcal mol^−1 | Kd (equine oxy-Mb [1]; pH 6.0, 25 °C): 1.9 ± 0.2 µM | ΔG (equine oxy-Mb [1]; pH 6.0, printed as Mb+LAC complex): -7.8 kcal/mol | c value (equine oxy-Mb [1]; pH 6.0): 267.9 ± 30.4 ^d2 | ΔS° (equine oxy-Mb [1]; pH 6.0): 0.14 ± 0.01 ^c2 cal mol^−1 K^−1 | No. of binding sites (equine oxy-Mb [1]; pH 6.4): 0.8 ± 0.03 ^a1 | ΔH° (equine oxy-Mb [1]; pH 6.4): 151.5 ± 18.5 ^b1 kcal mol^−1 | Kd (equine oxy-Mb [1]; pH 6.4, 25 °C): ~7 µM | Kd (equine oxy-Mb [1]; [8]): 6.9 ± 1.1 µM | ΔG (equine oxy-Mb [1]; pH 6.4, oxy-Mb+LAC complex): -6.9 kcal/mol | c value (equine oxy-Mb [1]; pH 6.4): 67.5 ± 15.5 ^b1 | ΔS° (equine oxy-Mb [1]; pH 6.4): 0.5 ± 0.06 ^b1 cal mol^−1 K^−1 | Ka (equine oxy-Mb [1]; pH 7.0): 0.05 µM⁻¹ | No. of binding sites (equine oxy-Mb [1]; pH 7.0): 0.9 ± 0.7 ^b* | ΔG (equine oxy-Mb [1]; pH 7.0): -6.2 kcal/mol | ΔH° (equine oxy-Mb [1]; pH 7.0): −53.1 ± 0.3 ^a* kcal mol^−1 | Kd (equine oxy-Mb [1]; pH 7.0, 25 °C): 20.7 ± 2.7 µM | c value (equine oxy-Mb [1]; pH 7.0): 22.4 ± 1.4 ^a | ΔS° (equine oxy-Mb [1]; pH 7.0): −0.15 ± 0.01 ^a* cal mol^−1 K^−1 | increase of Ka with drop in pH (equine oxy-Mb [1]; pH 7.0 to pH 6.0): ~ 3 fold | No. of binding sites (equine deoxy-Mb; pH 6.0): 0.8 ± 0.02 ^a2 | ΔH° (equine deoxy-Mb; pH 6.0): 12.6 ± 0.4 ^d3 kcal mol^−1 | Kd (equine deoxy-Mb; pH 6.0, 25 °C): 6.4 ± 0.2 µM | c value (equine deoxy-Mb; pH 6.0): 61.2 ± 0.9 ^b1 | ΔS° (equine deoxy-Mb; pH 6.0): 0.1 ± 0.0 ^d3 cal mol^−1 K^−1 | No. of binding sites (equine deoxy-Mb; pH 6.4): 0.8 ± 0.03 ^a1 | ΔH° (equine deoxy-Mb; pH 6.4): 149.5 ± 13.0 ^b1 kcal mol^−1 | Kd (equine deoxy-Mb; pH 6.4, 25 °C): ~14 µM | Kd (equine deoxy-Mb; [8]): 13.7 ± 1.6 µM | c value (equine deoxy-Mb; pH 6.4): 30.4 ± 4.6 ^c1 | ΔS° (equine deoxy-Mb; pH 6.4): 0.55 ± 0.03 ^b1 cal mol^−1 K^−1 | Ka at pH 6.4 relative to pH 6.0 (equine deoxy-Mb; pH 6.4 vs pH 6.0): ~ 2 fold | binding of LAC (ITC) (equine deoxy-Mb; pH 7.0): No detectable binding | No. of binding sites (equine deoxy-Mb; pH 7.0, NDB: no detectable binding): NDB | binding of LAC (ITC) [2]: no detectable binding; also recorded: did not bound | O2 release compared to oxy-Mb alone (equine oxy-Mb [3]; 0.625 mM LAC, pH 6.0): no significance difference | maximum rate of O2 release (equine oxy-Mb [3]; 2.5 mM LAC, pH 6.4 buffer, 25 °C): 72 nmol/min/g protein | O2 release rate constant (equine oxy-Mb [3]; pH 6.0): 0.04 mM LAC/nM O2 release | O2 release rate constant (equine oxy-Mb [3]; pH 6.4): 0.029 mM LAC/nM O2 release | O2 release rate constant (equine oxy-Mb [3]; pH 7.0): 0.537 mM LAC/nM O2 release | change in UV-Vis spectral data (oxy-Mb [4]): no change in spectral data | change in UV-Vis spectral data (deoxy-Mb [5]): marginal changes in the heme peak absorbance (435 nm) | Kd (oxy-Mb [6]): 26 mM | Kd (deoxy-Mb [7]): 2.5 mM
